Test system: cytokine, chemokine and angiogenic factors (blood biomarkers)
Experiment: Serum blood biomarkers (cytokine, chemokine and angiogenic factors) by ELISA and multiplex kits, pre- and post-treatment with E7080
Type: in vivo, human
Procedure: Patients received E7080 at a dose of 24 mg oral once daily in 28 day cycles. […] 7.5 mL of blood was drawn into serum […] tube (SST) and let to clot at room temperature for at least 30 min. Within 60 minutes of sample collection, the tubes were centrifuged for 10 minutes at 20-25° C. at 1400×g. The supernatant was drawn without disturbing the pellet and the serum was mixed and divided into two sample tubes and stored frozen (−70° C.) at an upright position until further treatment for analysis. Serum samples from 58 patients were used for blood biomarker analysis. […] The association of progression free survival with or without a covariate was analyzed. The covariates used are the following PK parameters: cycle 1 day 1 Cmax (E7080 concentration 2 hr after dosing on cycle 1 day 1: MAX1); cycle 1 day 1 Ctrough (E7080 concentration before dosing on cycle1 day 8: MIN1); cycle 2 day 1 Cmax (E7080 concentration 2 hrs after dosing on cycle 2 day 1: MAX2); cycle 2 day 1 Ctrough (E7080 concentration before dosing on cycle 2 day 1: MIN2). Serum samples were tested in batch format where all timepoints from the same subject were assayed on the same day. On the day of assay, samples were removed from −80° C. and allowed to thaw and reach room temperature. The serum samples were tested using the following commercial assay kits as per the manufacturer's instructions: Human Soluble Tie-2 ELISA (R&D Systems Cat. No. DTE200), Human Angiopoietin-1 ELISA (R&D Systems Cat. No. DANG10), Human FGF23 ELISA, Human SDF-1a ELISA. Human Angiopoietin-2 ELISA (R&D Systems Cat. No. DANG20), Human Soluble Receptor Multiplex (Millipore Cat. No. HSCR-32K; sVEGF R1, sVEGF R2 and sVEGF R3 only), Human Cytokine/Chemokine Panel I Multiplex (Millipore Cat. No. MPXHCYTO-60K; IL-1α, IL-1β, IL-1ra, IL-2, IL-4, IL-5, IL-6, IL-7, IL-8, IL-10, IL-12p40, IL-12p70, IL-13, IL-15, IL-17, sCD40L, EGF, Eotaxin, FGF-2, G-CSF, GM-CSF, IFN-γ, IP-10, MCP-1, MIP-1α, MIP-1β, PDGF-AA, RANTES, TGF-α, TNF-α and VEGF only) and Human Growth Factor Multiplex (Origene TruPLEX Cat. No. AM100096; PDGF-AB, PDGF-BB, FGF4, VEGFD, FGF2, EGF, HGF, FLT3LG, ANGPT2, PGF and VEGFA).
The ELISA plates were measured using a Molecular Devices UVmax kinetic microplate reader with SoftMax Pro 5.2 software. The multiplex assays were performed using the Bio-Rad Bio-Plex system with Bio-Plex Manager 4.1 software. Final protein concentrations (pg/mL) were calculated from the standard curve for each assay. Depending on the assay, serum samples may have been diluted in assay buffer prior to testing. In these cases, protein concentrations were multiplied by the dilution factor.
From 58 patient samples, between 27 and 49 pre- and post-treatment blood samples were used for analyses.

Q: Which “sVEGFR1 fold change (median)” value (CYCLE 1 DAY 8 vs CYCLE 1 DAY 1) does the source give for `COc1cc2nccc(Oc3ccc(NC(=O)NC4CC4)c(Cl)c3)c2cc1C(N)=O` [E7080, 4-(3-chloro-4-(cyclopropylaminocarbonyl)aminophenoxy)-7-methoxy-6-quinolinecarboxamide] here?
A: 0.92

Q: What about the “sVEGFR2 fold change (median)” value (CYCLE 1 DAY 8 vs CYCLE 1 DAY 1) of the same compound?
A: 0.676

Q: What about the “FGF2 (79) ratio (Median), PR group” value (CYCLE 2 DAY 2/CYCLE 1 DAY 8) of the same compound?
A: 1.132

Q: What about the “FGF2 (79) ratio (Median), others (SD or PD)” value (CYCLE 2 DAY 2/CYCLE 1 DAY 8) of the same compound?
A: 0.978

Q: And the “GM-CSF ratio (Median), PR group” value (CYCLE 2 DAY 2/CYCLE 1 DAY 8)?
A: 1.051

Q: And the “GM-CSF ratio (Median), others (SD or PD)” value (CYCLE 2 DAY 2/CYCLE 1 DAY 8)?
A: 0.876

Q: What about the “HGF (86) ratio (Median), PR group” value (CYCLE 2 DAY 2/CYCLE 1 DAY 8) of the same compound?
A: 0.789

Q: What about the “HGF (86) ratio (Median), others (SD or PD)” value (CYCLE 2 DAY 2/CYCLE 1 DAY 8) of the same compound?
A: 1.087

Q: And the “Tie-2 ratio (Median), PR group” value (CYCLE 2 DAY 2/CYCLE 1 DAY 8)?
A: 0.791

Q: What about the “Tie-2 ratio (Median), others (SD or PD)” value (CYCLE 2 DAY 2/CYCLE 1 DAY 8) of the same compound?
A: 0.852

Q: What about the “VEGFA (100) ratio (Median), PR group” value (CYCLE 2 DAY 2/CYCLE 1 DAY 8) of the same compound?
A: 0.899

Q: What about the “VEGFA (100) ratio (Median), others (SD or PD)” value (CYCLE 2 DAY 2/CYCLE 1 DAY 8) of the same compound?
A: 1.172

Q: What about the “ANG2 (90) serum level post treatment (median)” value (CYCLE 2 DAY 8) of the same compound?
A: 600.6 pg/mL

Q: And the “Ang-2 serum level post treatment (median)” value (CYCLE 2 DAY 8)?
A: 1533 pg/mL

Q: And the “EGF (80) serum level post treatment (median)” value (CYCLE 2 DAY 8)?
A: 875.8 pg/mL

Q: What about the “EGF serum level post treatment (median)” value (CYCLE 2 DAY 8) of the same compound?
A: 75.9 pg/mL

Q: What about the “Eotaxin serum level post treatment (median)” value (CYCLE 2 DAY 8) of the same compound?
A: 177 pg/mL

Q: And the “G-CSF serum level post treatment (median)” value (CYCLE 2 DAY 8)?
A: 61.3 pg/mL

Q: And the “IL-6 concentration (Median), PR group” value (CYCLE 2 DAY 8)?
A: 8.2 pg/mL

Q: And the “IL-6 concentration (Median), others (SD or PD)” value (CYCLE 2 DAY 8)?
A: 33.9 pg/mL

Q: And the “IL-6 serum level post treatment (median)” value (CYCLE 2 DAY 8)?
A: 15 pg/mL

Q: What about the “IL-8 serum level post treatment (median)” value (CYCLE 2 DAY 8) of the same compound?
A: 31.4 pg/mL

Q: And the “IP-10 serum level post treatment (median)” value (CYCLE 2 DAY 8)?
A: 602.8 pg/mL

Q: What about the “MCP-1 serum level post treatment (median)” value (CYCLE 2 DAY 8) of the same compound?
A: 618.0 pg/mL

Q: And the “PGF (91) serum level post treatment (median)” value (CYCLE 2 DAY 8)?
A: 46.0 pg/mL

Q: And the “SDF-1a serum level post treatment (median)” value (CYCLE 2 DAY 8)?
A: 3529.5 pg/mL

Q: And the “Tie-2 serum level post treatment (median)” value (CYCLE 2 DAY 8)?
A: 26220 pg/mL

Q: And the “VEGFA (100) serum level post treatment (median)” value (CYCLE 2 DAY 8)?
A: 212.5 pg/mL

Q: What about the “sVEGFR1 serum level post treatment (median)” value (CYCLE 2 DAY 8) of the same compound?
A: 341.5 pg/mL

Q: And the “sVEGFR2 serum level post treatment (median)” value (CYCLE 2 DAY 8)?
A: 13352.1 pg/mL

Q: What about the “sVEGFR3 serum level post treatment (median)” value (CYCLE 2 DAY 8) of the same compound?
A: 4030.9 pg/mL

Q: And the “Eotaxin ratio (Median), PR group” value (CYCLE 2 DAY 8/CYCLE 1 DAY 1)?
A: 1.541

Q: And the “Eotaxin ratio (Median), others (SD or PD)” value (CYCLE 2 DAY 8/CYCLE 1 DAY 1)?
A: 1.242

Q: And the “IP-10 ratio (Median), PR group” value (CYCLE 2 DAY 8/CYCLE 1 DAY 1)?
A: 1.547

Q: And the “IP-10 ratio (Median), others (SD or PD)” value (CYCLE 2 DAY 8/CYCLE 1 DAY 1)?
A: 1.151

Q: What about the “ANG2 (90) fold change (median)” value (CYCLE 2 DAY 8 vs CYCLE 1 DAY 1) of the same compound?
A: 0.586

Q: And the “Ang-2 fold change (median)” value (CYCLE 2 DAY 8 vs CYCLE 1 DAY 1)?
A: 0.618

Q: And the “EGF (80) fold change (median)” value (CYCLE 2 DAY 8 vs CYCLE 1 DAY 1)?
A: 1.17

Q: And the “EGF fold change (median)” value (CYCLE 2 DAY 8 vs CYCLE 1 DAY 1)?
A: 0.808

Q: And the “Eotaxin fold change (median)” value (CYCLE 2 DAY 8 vs CYCLE 1 DAY 1)?
A: 1.363

Q: What about the “G-CSF fold change (median)” value (CYCLE 2 DAY 8 vs CYCLE 1 DAY 1) of the same compound?
A: 1.215

Q: And the “IL-6 fold change (median)” value (CYCLE 2 DAY 8 vs CYCLE 1 DAY 1)?
A: 1.299

Q: What about the “IL-8 fold change (median)” value (CYCLE 2 DAY 8 vs CYCLE 1 DAY 1) of the same compound?
A: 1.205

Q: And the “IP-10 fold change (median)” value (CYCLE 2 DAY 8 vs CYCLE 1 DAY 1)?
A: 1.382

Q: And the “MCP-1 fold change (median)” value (CYCLE 2 DAY 8 vs CYCLE 1 DAY 1)?
A: 1.086

Q: And the “PGF (91) fold change (median)” value (CYCLE 2 DAY 8 vs CYCLE 1 DAY 1)?
A: 3.05

Q: And the “SDF-1a fold change (median)” value (CYCLE 2 DAY 8 vs CYCLE 1 DAY 1)?
A: 1.345

Q: What about the “Tie-2 fold change (median)” value (CYCLE 2 DAY 8 vs CYCLE 1 DAY 1) of the same compound?
A: 0.766

Q: And the “VEGFA (100) fold change (median)” value (CYCLE 2 DAY 8 vs CYCLE 1 DAY 1)?
A: 1.426

Q: What about the “sVEGFR1 fold change (median)” value (CYCLE 2 DAY 8 vs CYCLE 1 DAY 1) of the same compound?
A: 0.805

Q: And the “sVEGFR2 fold change (median)” value (CYCLE 2 DAY 8 vs CYCLE 1 DAY 1)?
A: 0.499

Q: What about the “sVEGFR3 fold change (median)” value (CYCLE 2 DAY 8 vs CYCLE 1 DAY 1) of the same compound?
A: 0.843
